Assay results from paper PMC11274654 (Biomedicines, 2024).

Columns and labels:
[1] = tested on: serum P1NP and CTX-I of OVX rats; assay: OVX osteopenia model, serum bone turnover markers (ELISA); format: in vivo, SD rats; details: 235 mg/kg oral, 3 months
Method: The 10-month-old (265 ± 20 g) SD rats were ovariectomized (OVX) bilaterally and left for 3 months to develop osteopenia. Ovary-intact sham-operated animals were used as a control. A live animal micro-CT was performed to confirm osteopenia, followed by dividing the animals into 3 groups: Sham + vehicle (water, oral), OVX + vehicle (water, oral), and OVX + MTZ (235 mg/kg, oral). Each group had 9 rats, and treatment were administered for 3 months. Calcein (20 mg/kg, s.c.) was injected twice before sacrificing at 10-day intervals. The levels of serum procollagen type I N-terminal peptide (P1NP) and serum cross-linked C-telopeptide of type I collagen (CTX-I) were assessed using ELISA (MyBioSource, San Diego, CA, USA), in accordance with the manufacturer’s protocol.

mouse BMSCs (mBMSCs) = assay: BrdU proliferation assay in mBMSCs; format: cell-based; details: 1 nM
Method: (§1) Rat and mouse bone marrow stromal cells (BMSCs) were seeded at a density of 4000 cells/well in a 96-well plate for cell proliferation and treated with 1 nM of MTZ for 48 h in a growth medium (α-MEM containing 10% FBS). Following the MTZ treatment, the cells were incubated for 4 h with bromodeoxyuridine (BrdU) before termination. Cell proliferation was assessed at 450 nm using the Roche Diagnostics BrdU ELISA kit, in accordance with the manufacturer’s protocol, using a reference wavelength of 690 nm.

rat BMSCs (rBMSCs) = assay: BrdU proliferation assay in rBMSCs; format: cell-based; details: 1 nM
Method: as §1

C3H10T1/2 cells = assay: Nodule mineralization (Alizarin Red S) in C3H10T1/2 cells; format: cell-based, murine; details: 21 days, differentiation medium
Method: In a different set of experiments, 3 × 10^6 C3H10T1/2 cells were seeded in a 60 mm culture dish. Then, 24 h post-seeding, the vehicle or MTZ treatment was conducted, and the media were changed every alternate day for 21 days using a differentiation medium.
Cells were fixed with 10% formalin for 15 min and stained with Alizarin Red for 1 h after 21 days of culture. Moreover, 10% cetylpyridinium chloride (Sigma #C0732) was used to quantify mineralized nodules at a 595 nm wavelength.

[2] = tested on: Wnt/β-catenin signaling (TOP-Flash reporter, HEK293T cells); assay: Wnt/β-catenin TOP-Flash reporter assay; format: cell-based; details: 24 h
Method: The effect of MTZ on β-catenin signaling was assayed using a TOP-Flash reporter plasmid that contained a minimal TA viral promoter coupled to β-catenin-responsive TCF/LEF-binding sites upstream of a firefly luciferase gene (a kind gift from Prof. Yosef Yarden, WIS, Israel). Briefly, HEK293T cells were transfected with 0.5 μg of the TOP-Flash plasmid. Additionally, the GFP-encoding plasmid, pEGFP, was transfected as a control for transfection efficiency. […] In white opaque plates, the lysate and 100 μL of luciferase assay buffer (10 mM KH2PO4, 2 mM ATP, 1 mM D-luciferin, NaCl, and MgCl2) were added, and luminescence was measured. Luminescence values were normalized by EGFP plasmid fluorescence value, and the fold-change was calculated relative to the control.

## Cc1ncc([N+](=O)[O-])n1CCO [Metronidazole]
[1]
  Serum bone formation marker P1NP levels: restored
  Serum resorption marker CTX-1: failed to reduce it
Mouse BMSCs (mBMSCs)
  Proliferation (BrdU incorporation): did not affect
Rat BMSCs (rBMSCs)
  Proliferation (BrdU incorporation): did not affect
C3H10T1/2 cells
  Mineralization: promoted mineralization
[2]
  TOP-Flash reporter activity: increased
